# Laboratory results taken from patent US20240358692A1, “TREATMENT OF SCLERODERMA” (Aisa Pharma, Inc., priority 2023, published 2024).
# Tested on: participants with SSc-RP
# Test: Frequency of weekly symptomatic RP attacks (patient diary), Phase 2a Part A
# Assay type: in vivo, human
# Conditions: ITT Part A
# Excerpt: Percent change from baseline evaluation for frequency of weekly RP attacks were or will be used as the primary efficacy variable. The sponsor-developed participant-informed diary will be used to record data. Frequency of weekly RP attacks is defined as the total number of RP attacks divided by the number of days with available diary data within the last 7 days of each dosing period then multiplied by 7. Total number of RP attacks during the last 7 days of screening period divided by the number of days with available data then multiplied by 7 will be used as baseline for the analysis of all periods. The variable will be calculated as follows: […]
# Percent change from baseline evaluation for frequency of weekly RP attacks was and will be the primary efficacy endpoint. Frequency of weekly RP attacks is defined as the total number of RP attacks divided by the number of days with available diary data within the last 7 days of each dosing period then multiplied by 7. Total number of RP attacks during the last 7 days of screening period divided by the number of days with available data then multiplied by 7 will be used as baseline for the analysis of all periods.
# [1] = Cilnidipine 10 mg, n=1, Excluding Outliers
# [2] = Cilnidipine 10 mg, n=1, by Baseline RCS, first block (RCS <5.0)
# [3] = Cilnidipine 20 mg, n=2, Excluding Outliers
# [4] = Cilnidipine 20 mg, n=2, by Baseline RCS, first block (RCS <5.0)
# [5] = Pooled Cilnidipine 10 mg and Cilnidipine 10 mg + Tadalafil 5 mg, n=1, by Baseline RCS, second block (RCS >5.0)
# [6] = Pooled Cilnidipine 10 mg and Cilnidipine 10 mg + Tadalafil 5 mg, n=2, by Baseline RCS, first block (RCS <5.0)
# [7] = Pooled Cilnidipine 10 mg and Cilnidipine 10 mg + Tadalafil 5 mg, n=3
# [8] = Pooled Cilnidipine 10 mg and Cilnidipine 10 mg + Tadalafil 5 mg, n=3, Excluding Outliers
# [9] = Pooled Cilnidipine 10 mg and Cilnidipine 10 mg + Tadalafil 5 mg, n=1, excluding outliers, second Baseline RCS subgroup, last 7 days of dosing
# [10] = Pooled Cilnidipine 10 mg and Cilnidipine 10 mg + Tadalafil 5 mg, n=2, excluding outliers, first Baseline RCS subgroup, last 7 days of dosing
# [11] = Pooled Cilnidipine 20 mg and Cilnidipine 20 mg + Tadalafil 5 mg, n=1, by Baseline RCS, second block (RCS >5.0)
# [12] = Pooled Cilnidipine 20 mg and Cilnidipine 20 mg + Tadalafil 5 mg, n=3, by Baseline RCS, first block (RCS <5.0)
# [13] = Pooled Cilnidipine 20 mg and Cilnidipine 20 mg + Tadalafil 5 mg, n=4
# [14] = Pooled Cilnidipine 20 mg and Cilnidipine 20 mg + Tadalafil 5 mg, n=4, Excluding Outliers
# [15] = Pooled Cilnidipine 20 mg and Cilnidipine 20 mg + Tadalafil 5 mg, n=1, excluding outliers, second Baseline RCS subgroup, last 7 days of dosing
# [16] = Pooled Cilnidipine 20 mg and Cilnidipine 20 mg + Tadalafil 5 mg, n=3, excluding outliers, first Baseline RCS subgroup, last 7 days of dosing
# [17] = Pooled Cilnidipine (10 or 20 mg), n=3
# [18] = Pooled Cilnidipine (10 or 20 mg), n=3, Excluding Outliers
smiles,measurement,setting,value
COCCOC(=O)C1=C(C)NC(C)=C(C(=O)OC/C=C/c2ccccc2)C1c1cccc([N+](=O)[O-])c1 (centres unmarked) [Cilnidipine],"Weekly Symptomatic RP Attacks Change from Baseline, Mean","Cilnidipine 10 mg, n=1",−7.00
same,"Weekly Symptomatic RP Attacks Change from Baseline, Median","Cilnidipine 10 mg, n=1",−7.00
same,"Weekly Symptomatic RP Attacks Percent Change from Baseline, Mean","Cilnidipine 10 mg, n=1",−33.33%
same,"Weekly Symptomatic RP Attacks Percent Change from Baseline, Median","Cilnidipine 10 mg, n=1",−33.33%
same,"Weekly Symptomatic RP Attacks, Mean","Cilnidipine 10 mg, n=1",14.00
same,"Weekly Symptomatic RP Attacks, Median","Cilnidipine 10 mg, n=1",14.00
same,"Weekly Symptomatic RP Attacks Change from Baseline, Mean",[1],−7.00
same,"Weekly Symptomatic RP Attacks Change from Baseline, Median",[1],−7.00
same,"Weekly Symptomatic RP Attacks Percent Change from Baseline, Mean",[1],−33.33%
same,"Weekly Symptomatic RP Attacks Percent Change from Baseline, Median",[1],−33.33%
same,"Weekly Symptomatic RP Attacks, Mean",[1],14.00
same,"Weekly Symptomatic RP Attacks, Median",[1],14.00
same,"Weekly Symptomatic RP Attacks Change from Baseline, Mean",[2],−7.00
same,"Weekly Symptomatic RP Attacks Change from Baseline, Median",[2],−7.00
same,"Weekly Symptomatic RP Attacks Percent Change from Baseline, Mean",[2],−33.33%
same,"Weekly Symptomatic RP Attacks Percent Change from Baseline, Median",[2],−33.33%
same,"Weekly Symptomatic RP Attacks, Mean",[2],14.00
same,"Weekly Symptomatic RP Attacks, Median",[2],14.00
same,"Weekly Symptomatic RP Attacks Change from Baseline, Mean","Cilnidipine 20 mg, n=2",−4.50
same,"Weekly Symptomatic RP Attacks Change from Baseline, Median","Cilnidipine 20 mg, n=2",−4.50
same,"Weekly Symptomatic RP Attacks Percent Change from Baseline, Mean","Cilnidipine 20 mg, n=2",−33.73%
same,"Weekly Symptomatic RP Attacks Percent Change from Baseline, Median","Cilnidipine 20 mg, n=2",−33.73%
same,"Weekly Symptomatic RP Attacks, Mean","Cilnidipine 20 mg, n=2",8.00
same,"Weekly Symptomatic RP Attacks, Median","Cilnidipine 20 mg, n=2",8.00
same,"Weekly Symptomatic RP Attacks Change from Baseline, Mean",[3],−4.50
same,"Weekly Symptomatic RP Attacks Change from Baseline, Median",[3],−4.50
same,"Weekly Symptomatic RP Attacks Percent Change from Baseline, Median",[3],−33.73%
same,"Weekly Symptomatic RP Attacks, Mean",[3],8.00
same,"Weekly Symptomatic RP Attacks, Median",[3],8.00
same,"Weekly Symptomatic RP Attacks Change from Baseline, Mean",[4],−4.50
same,"Weekly Symptomatic RP Attacks Change from Baseline, Median",[4],−4.50
same,"Weekly Symptomatic RP Attacks Percent Change from Baseline, Mean",[4],−33.73%
same,"Weekly Symptomatic RP Attacks Percent Change from Baseline, Median",[4],−33.73%
same,"Weekly Symptomatic RP Attacks, Mean",[4],8.00
same,"Weekly Symptomatic RP Attacks, Median",[4],8.00
same,"Weekly Symptomatic RP Attacks Change from Baseline, Mean",[5],−3.00
same,"Weekly Symptomatic RP Attacks Change from Baseline, Median",[5],−3.00
same,"Weekly Symptomatic RP Attacks Percent Change from Baseline, Mean",[5],−42.86%
same,"Weekly Symptomatic RP Attacks Percent Change from Baseline, Median",[5],−42.86%
same,"Weekly Symptomatic RP Attacks, Mean",[5],4.00
same,"Weekly Symptomatic RP Attacks, Median",[5],4.00
same,"Weekly Symptomatic RP Attacks Change from Baseline, Mean",[6],−5.50
same,"Weekly Symptomatic RP Attacks Change from Baseline, Median",[6],−5.50
same,"Weekly Symptomatic RP Attacks Percent Change from Baseline, Mean",[6],−38.89%
same,"Weekly Symptomatic RP Attacks Percent Change from Baseline, Median",[6],−38.89%
same,"Weekly Symptomatic RP Attacks, Mean",[6],9.50
same,"Weekly Symptomatic RP Attacks, Median",[6],9.50
same,"Weekly Symptomatic RP Attacks Change from Baseline, Mean",[7],−4.67
same,"Weekly Symptomatic RP Attacks Change from Baseline, Median",[7],−4.00
same,"Weekly Symptomatic RP Attacks Percent Change from Baseline, Mean",[7],−40.21%
same,"Weekly Symptomatic RP Attacks Percent Change from Baseline, Median",[7],−42.86%
same,"Weekly Symptomatic RP Attacks, Mean",[7],7.67
same,"Weekly Symptomatic RP Attacks, Median",[7],5.00
same,"Weekly Symptomatic RP Attacks Change from Baseline, Mean",[8],−4.67
same,"Weekly Symptomatic RP Attacks Change from Baseline, Median",[8],−4.00
same,"Weekly Symptomatic RP Attacks Percent Change from Baseline, Mean",[8],−40.21%
same,"Weekly Symptomatic RP Attacks Percent Change from Baseline, Median",[8],−42.86%
same,"Weekly Symptomatic RP Attacks, Mean",[8],7.67
same,"Weekly Symptomatic RP Attacks, Median",[8],5.00
same,"Weekly Symptomatic RP Attacks Change from Baseline, Mean",[9],−3.00
same,"Weekly Symptomatic RP Attacks Change from Baseline, Median",[9],−3.00
same,"Weekly Symptomatic RP Attacks Percent Change from Baseline, Mean",[9],−42.86%
same,"Weekly Symptomatic RP Attacks Percent Change from Baseline, Median",[9],−42.86%
same,"Weekly Symptomatic RP Attacks, Mean",[9],4.00
same,"Weekly Symptomatic RP Attacks, Median",[9],4.00
same,"Weekly Symptomatic RP Attacks Change from Baseline, Mean",[10],−5.50
same,"Weekly Symptomatic RP Attacks Change from Baseline, Median",[10],−5.50
same,"Weekly Symptomatic RP Attacks Percent Change from Baseline, Mean",[10],−38.89%
same,"Weekly Symptomatic RP Attacks Percent Change from Baseline, Median",[10],−38.89%
same,"Weekly Symptomatic RP Attacks, Mean",[10],9.50
same,"Weekly Symptomatic RP Attacks, Median",[10],9.50
same,"Weekly Symptomatic RP Attacks Change from Baseline, Mean",[11],−0.50
same,"Weekly Symptomatic RP Attacks Change from Baseline, Median",[11],−0.50
same,"Weekly Symptomatic RP Attacks Percent Change from Baseline, Mean",[11],−4.76%
same,"Weekly Symptomatic RP Attacks Percent Change from Baseline, Median",[11],−4.76%
same,"Weekly Symptomatic RP Attacks, Mean",[11],10.00
same,"Weekly Symptomatic RP Attacks, Median",[11],10.00
same,"Weekly Symptomatic RP Attacks Change from Baseline, Mean",[12],−4.67
same,"Weekly Symptomatic RP Attacks Change from Baseline, Median",[12],−5.00
same,"Weekly Symptomatic RP Attacks Percent Change from Baseline, Mean",[12],−31.75%
same,"Weekly Symptomatic RP Attacks Percent Change from Baseline, Median",[12],−28.57%
same,"Weekly Symptomatic RP Attacks, Mean",[12],9.67
same,"Weekly Symptomatic RP Attacks, Median",[12],11.00
same,"Weekly Symptomatic RP Attacks Change from Baseline, Mean",[13],−3.63
same,"Weekly Symptomatic RP Attacks Change from Baseline, Median",[13],−3.50
same,"Weekly Symptomatic RP Attacks Percent Change from Baseline, Mean",[13],−25.00%
same,"Weekly Symptomatic RP Attacks Percent Change from Baseline, Median",[13],−28.17%
same,"Weekly Symptomatic RP Attacks, Mean",[13],9.75
same,"Weekly Symptomatic RP Attacks, Median",[13],10.50
same,"Weekly Symptomatic RP Attacks Change from Baseline, Mean",[14],−3.63
same,"Weekly Symptomatic RP Attacks Change from Baseline, Median",[14],−3.50
same,"Weekly Symptomatic RP Attacks Percent Change from Baseline, Mean",[14],−25.00%
same,"Weekly Symptomatic RP Attacks Percent Change from Baseline, Median",[14],−28.17%
same,"Weekly Symptomatic RP Attacks, Mean",[14],9.75
same,"Weekly Symptomatic RP Attacks, Median",[14],10.50
same,"Weekly Symptomatic RP Attacks Change from Baseline, Mean",[15],−0.50
same,"Weekly Symptomatic RP Attacks Change from Baseline, Median",[15],−0.50
same,"Weekly Symptomatic RP Attacks Percent Change from Baseline, Mean",[15],−4.76%
same,"Weekly Symptomatic RP Attacks Percent Change from Baseline, Median",[15],−4.76%
same,"Weekly Symptomatic RP Attacks, Mean",[15],10.00
same,"Weekly Symptomatic RP Attacks, Median",[15],10.00
same,"Weekly Symptomatic RP Attacks Change from Baseline, Mean",[16],−4.67
same,"Weekly Symptomatic RP Attacks Change from Baseline, Median",[16],−5.00
same,"Weekly Symptomatic RP Attacks Percent Change from Baseline, Mean",[16],−31.75%
same,"Weekly Symptomatic RP Attacks Percent Change from Baseline, Median",[16],−28.57%
same,"Weekly Symptomatic RP Attacks, Mean",[16],9.67
same,"Weekly Symptomatic RP Attacks, Median",[16],11.00
same,"Weekly Symptomatic RP Attacks Change from Baseline, Mean",[17],−5.33
same,"Weekly Symptomatic RP Attacks Change from Baseline, Median",[17],−7.00
same,"Weekly Symptomatic RP Attacks Percent Change from Baseline, Mean",[17],−33.60%
same,"Weekly Symptomatic RP Attacks Percent Change from Baseline, Median",[17],−33.33%
same,"Weekly Symptomatic RP Attacks, Mean",[17],10.00
same,"Weekly Symptomatic RP Attacks, Median",[17],11.00
same,"Weekly Symptomatic RP Attacks Change from Baseline, Mean",[18],−5.33
same,"Weekly Symptomatic RP Attacks Change from Baseline, Median",[18],−7.00
same,"Weekly Symptomatic RP Attacks Percent Change from Baseline, Mean",[18],−33.60%
